Results taken from PubChem BioAssay (NCI).
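Following 48 hours of exposure in 96-well plates, responses at five concentrations were used to interpolate endpoints linearly. The concentration for 50% growth inhibition is given as GI50. The concentration for full growth arrest is given as TGI.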

Key:
Test in all cases: NCI-60 cell line screen, 48 h
MDA-MB-468 breast = tested on: MDA-MB-468 breast
EKVX NSCLC = tested on: EKVX NSCLC
M14 melanoma = tested on: M14 melanoma
MOLT-4 leukemia = tested on: MOLT-4 leukemia
MALME-3M melanoma = tested on: MALME-3M melanoma
HS 578T breast = tested on: HS 578T breast
U251 CNS = tested on: U251 CNS
KM12 colon = tested on: KM12 colon
MCF7 breast = tested on: MCF7 breast
SF-539 CNS = tested on: SF-539 CNS
SK-MEL-2 melanoma = tested on: SK-MEL-2 melanoma
T-47D breast = tested on: T-47D breast
SF-295 CNS = tested on: SF-295 CNS
HCT-116 colon = tested on: HCT-116 colon
K-562 leukemia = tested on: K-562 leukemia
BT-549 breast = tested on: BT-549 breast
SK-MEL-5 melanoma = tested on: SK-MEL-5 melanoma
RXF 393 renal = tested on: RXF 393 renal
DU-145 prostate = tested on: DU-145 prostate
A549 NSCLC = tested on: A549 NSCLC
MDA-MB-435 = tested on: MDA-MB-435
HCC-2998 colon = tested on: HCC-2998 colon
UACC-257 melanoma = tested on: UACC-257 melanoma
HL-60(TB) leukemia = tested on: HL-60(TB) leukemia
RPMI-8226 leukemia = tested on: RPMI-8226 leukemia
SR leukemia = tested on: SR leukemia
OVCAR-8 ovarian = tested on: OVCAR-8 ovarian
NCI-H23 lung = tested on: NCI-H23 lung
NCI-H226 lung = tested on: NCI-H226 lung
NCI/ADR-RES ovarian = tested on: NCI/ADR-RES ovarian
HOP-92 NSCLC = tested on: HOP-92 NSCLC
SK-OV-3 ovarian = tested on: SK-OV-3 ovarian
TK-10 renal = tested on: TK-10 renal
SNB-75 CNS = tested on: SNB-75 CNS
UACC-62 melanoma = tested on: UACC-62 melanoma
MDA-MB-231 breast = tested on: MDA-MB-231 breast
OVCAR-4 ovarian = tested on: OVCAR-4 ovarian
COLO 205 colon = tested on: COLO 205 colon
CCRF-CEM leukemia = tested on: CCRF-CEM leukemia
SN12C renal = tested on: SN12C renal
SK-MEL-28 melanoma = tested on: SK-MEL-28 melanoma
A498 renal = tested on: A498 renal
HOP-62 NSCLC = tested on: HOP-62 NSCLC
PC-3 prostate = tested on: PC-3 prostate
UO-31 renal = tested on: UO-31 renal
786-0 renal = tested on: 786-0 renal
HCT-15 colon = tested on: HCT-15 colon
CAKI-1 renal = tested on: CAKI-1 renal
SF-268 CNS = tested on: SF-268 CNS
IGROV1 ovarian = tested on: IGROV1 ovarian
OVCAR-3 ovarian = tested on: OVCAR-3 ovarian
SNB-19 CNS = tested on: SNB-19 CNS
NCI-H522 lung = tested on: NCI-H522 lung
SW-620 colon = tested on: SW-620 colon
OVCAR-5 ovarian = tested on: OVCAR-5 ovarian
ACHN renal = tested on: ACHN renal
NCI-H460 lung = tested on: NCI-H460 lung
LOX IMVI melanoma = tested on: LOX IMVI melanoma

SMILES: C[n+]1c(/C=C/c2c(O)ccc3ccccc23)ccc2ccccc21
- GI50 (MDA-MB-468 breast): 1460 nM
- TGI (MDA-MB-468 breast): 7080 nM

SMILES: O=C(N/N=C/c1ccc(Cl)o1)c1[nH]c2ccc(Br)cc2c1-c1ccccc1
- GI50 (EKVX NSCLC): 585 nM
- TGI (EKVX NSCLC): > 100000 nM
- GI50 (M14 melanoma): 278 nM
- TGI (M14 melanoma): 23100 nM
- GI50 (MOLT-4 leukemia): 405 nM
- TGI (MOLT-4 leukemia): > 51600 nM
- GI50 (MALME-3M melanoma): 462 nM
- TGI (MALME-3M melanoma): 49900 nM
- GI50 (HS 578T breast): 264 nM
- TGI (HS 578T breast): 16600 nM
- GI50 (U251 CNS): 340 nM
- TGI (U251 CNS): 28100 nM
- GI50 (KM12 colon): 393 nM
- TGI (KM12 colon): > 100000 nM
- GI50 (MCF7 breast): 292 nM
- TGI (MCF7 breast): > 100000 nM
- GI50 (SF-539 CNS): 212 nM
- TGI (SF-539 CNS): 625 nM
- GI50 (SK-MEL-2 melanoma): 423 nM
- TGI (SK-MEL-2 melanoma): > 100000 nM
- GI50 (T-47D breast): 4530 nM
- TGI (T-47D breast): > 100000 nM
- GI50 (SF-295 CNS): 331 nM
- TGI (SF-295 CNS): > 49700 nM
- GI50 (HCT-116 colon): 128 nM
- TGI (HCT-116 colon): 3520 nM
- GI50 (MDA-MB-468 breast): 276 nM
- TGI (MDA-MB-468 breast): 6370 nM
- GI50 (K-562 leukemia): 251 nM
- TGI (K-562 leukemia): > 100000 nM
- GI50 (BT-549 breast): 295 nM
- TGI (BT-549 breast): 1750 nM
- GI50 (SK-MEL-5 melanoma): 247 nM
- TGI (SK-MEL-5 melanoma): 889 nM
- GI50 (RXF 393 renal): 397 nM
- TGI (RXF 393 renal): 26100 nM
- GI50 (DU-145 prostate): 382 nM
- TGI (DU-145 prostate): 13300 nM
- GI50 (A549 NSCLC): 383 nM
- TGI (A549 NSCLC): 32400 nM
- GI50 (MDA-MB-435): 170 nM
- TGI (MDA-MB-435): 542 nM
- GI50 (HCC-2998 colon): 380 nM
- TGI (HCC-2998 colon): 35100 nM
- GI50 (UACC-257 melanoma): 3400 nM
- TGI (UACC-257 melanoma): > 100000 nM
- GI50 (HL-60(TB) leukemia): 235 nM
- TGI (HL-60(TB) leukemia): 713 nM
- GI50 (RPMI-8226 leukemia): 407 nM
- TGI (RPMI-8226 leukemia): > 40500 nM
- GI50 (SR leukemia): 458 nM
- TGI (SR leukemia): > 100000 nM
- GI50 (OVCAR-8 ovarian): 298 nM
- TGI (OVCAR-8 ovarian): 3180 nM
- GI50 (NCI-H23 lung): 417 nM
- TGI (NCI-H23 lung): 27300 nM
- GI50 (NCI-H226 lung): 619 nM
- TGI (NCI-H226 lung): 29600 nM
- GI50 (NCI/ADR-RES ovarian): 168 nM
- TGI (NCI/ADR-RES ovarian): 514 nM
- GI50 (HOP-92 NSCLC): 4200 nM
- TGI (HOP-92 NSCLC): 43200 nM
- GI50 (SK-OV-3 ovarian): 567 nM
- TGI (SK-OV-3 ovarian): > 100000 nM
- GI50 (TK-10 renal): 8980 nM
- TGI (TK-10 renal): 37200 nM
- GI50 (SNB-75 CNS): 309 nM
- TGI (SNB-75 CNS): 18300 nM
- GI50 (UACC-62 melanoma): 346 nM
- TGI (UACC-62 melanoma): > 85900 nM
- GI50 (MDA-MB-231 breast): 316 nM
- TGI (MDA-MB-231 breast): 12100 nM
- GI50 (OVCAR-4 ovarian): 3810 nM
- TGI (OVCAR-4 ovarian): 40200 nM
- GI50 (COLO 205 colon): 245 nM
- TGI (COLO 205 colon): 549 nM
- GI50 (CCRF-CEM leukemia): 351 nM
- TGI (CCRF-CEM leukemia): 20200 nM
- GI50 (SN12C renal): 377 nM
- TGI (SN12C renal): 14200 nM
- GI50 (SK-MEL-28 melanoma): 993 nM
- TGI (SK-MEL-28 melanoma): > 61200 nM
- GI50 (A498 renal): 20100 nM
- TGI (A498 renal): 48900 nM
- GI50 (HOP-62 NSCLC): 472 nM
- TGI (HOP-62 NSCLC): 27400 nM
- GI50 (PC-3 prostate): 402 nM
- TGI (PC-3 prostate): > 100000 nM
- GI50 (UO-31 renal): 627 nM
- TGI (UO-31 renal): 25900 nM
- GI50 (786-0 renal): 443 nM
- TGI (786-0 renal): 8540 nM
- GI50 (HCT-15 colon): 343 nM
- TGI (HCT-15 colon): 33600 nM
- GI50 (CAKI-1 renal): 389 nM
- TGI (CAKI-1 renal): 17900 nM
- GI50 (SF-268 CNS): 575 nM
- TGI (SF-268 CNS): > 48100 nM
- GI50 (IGROV1 ovarian): 401 nM
- TGI (IGROV1 ovarian): > 94900 nM
- GI50 (OVCAR-3 ovarian): 367 nM
- TGI (OVCAR-3 ovarian): 14700 nM
- GI50 (SNB-19 CNS): 442 nM
- TGI (SNB-19 CNS): > 100000 nM
- GI50 (NCI-H522 lung): 137 nM
- TGI (NCI-H522 lung): 463 nM
- GI50 (SW-620 colon): 378 nM
- TGI (SW-620 colon): 27200 nM
- GI50 (OVCAR-5 ovarian): 388 nM
- TGI (OVCAR-5 ovarian): 22100 nM
- GI50 (ACHN renal): 523 nM
- TGI (ACHN renal): 21000 nM
- GI50 (NCI-H460 lung): 328 nM
- TGI (NCI-H460 lung): 10600 nM
- GI50 (LOX IMVI melanoma): 276 nM
- TGI (LOX IMVI melanoma): 14900 nM
